Where a SMILES comes first, the peptide text is derived from it.
Tests used:
[1] = DMPC clearance assay (solubilization of a turbid phospholipid solution); format: physicochemical
Excerpt: Relative Lipid Binding Affinity, Hydrophobicity, and Amphiphilicity of Synthetic Peptides-In some experiments, the relative lipid binding affinity of unique peptides was quantified using a surface balance technique (Gillotte, K L. et al., J. Biol. Chem., 274:2021-2028 (1999)). For routine analyses, a turbid solution of dimyristoylphosphatidylcholine (DMPC) was used to assess the relative capacity of synthetic peptides to solubilize phospholipid as described (Palgunachari, M. N. et al., Arterioscler. Thromb. Vasc. Biol., 16:328-338 (1996); McLean, L. R. and […]., Biochim. Biophys. Acta, 1167:289-295 (1993)). The DMPC was used at a final concentration of 0.08 mg/ml in 10 mM Tris-saline (pH 7.4). The final weight ratio of peptides relative to DMPC was 1:1. The absorbance (400 nm) of samples was monitored continuously over a period of 30 min at 25° C. Hydrophobicity of helical peptides was calculated using the consensus scale (Eisenberg D., Annu. Rev. Biochem., 53:593-623 (1984)). The hydrophobic moment (kcal/mol) of synthetic peptides, which is a measure of helix amphiphilicity, was calculated as described by Eisenberg et al. (Eisenberg, D. et al., Nature, 299:371-374 (1982)).

[2] = Relative lipid binding affinity by surface balance technique (monolayer exclusion pressure); format: physicochemical; details: for Monolayer exclusion pressure: surface balance technique
Excerpt: Relative Lipid Binding Affinity, Hydrophobicity, and Amphiphilicity of Synthetic Peptides—In some experiments, the relative lipid binding affinity of unique peptides was quantified using a surface balance technique (Gillotte, K L. et al., J. Biol. Chem., 274:2021-2028 (1999)). For routine analyses, a turbid solution of dimyristoylphosphatidylcholine (DMPC) was used to assess the relative capacity of synthetic peptides to solubilize phospholipid as described (Palgunachari, M. N. et al., Arterioscler. Thromb. Vasc. Biol., 16:328-338 (1996); McLean, L. R. and Hagaman, K. A., Biochim. Biophys. Acta, 1167:289-295 (1993)). The DMPC was used at a final concentration of 0.08 mg/ml in 10 mM Tris-saline (pH 7.4). The final weight ratio of peptides relative to DMPC was 1:1. The absorbance (400 nm) of samples was monitored continuously over a period of 30 min at 25° C. Hydrophobicity of helical peptides was calculated using the consensus scale (Eisenberg D., Annu. Rev. Biochem., 53:593-623 (1984)). The hydrophobic moment (kcal/mol) of synthetic peptides, which is a measure of helix amphiphilicity, was calculated as described by Eisenberg et al. (Eisenberg, D. et al., Nature, 299:371-374 (1982)).

ABCA1 [3] = target: T1, ABCA1 (Mus musculus, UniProt P41233); test: ABCA1 stabilization: immunoblot of ABCA1 protein in J774 macrophage membranes after cAMP withdrawal; format: cell-based; parameters: J774 macrophages were used to assess relative ABCA1 protein levels in the presence and absence of synthetic peptides; endogenous in cells; host or cells: J774 macrophages treated with a cAMP analog (CPT-cAMP or 8-bromo-cAMP); details: concentration dependence studies, J774 macrophages
ABCA1 [4] = target: T1, ABCA1; test: as above; format: cell-based; parameters: J774 macrophages were used to assess relative ABCA1 protein levels in the presence and absence of synthetic peptides; endogenous in cells; host or cells: J774 macrophages treated with a cAMP analog (CPT-cAMP or 8-bromo-cAMP); details: 20 μg/ml peptide, 6 h without cAMP, J774 macrophages
Protocol: J774 macrophages were incubated (18 h) with 0.5 mM 8-bromo-cAMP in medium containing 0.1% bovine serum albumin to up-regulate ABCA1 protein expression. Washed cells were subsequently exposed for 6 h to bovine serum albumin medium with (+) or without (−) 8-bromo-cAMP and the indicated synthetic peptides (20 μg/ml). None refers to no peptides. The cellular membrane content of ABCA1 protein was measured by immunoblot analysis.
ABCA1 Stabilization—J774 macrophages were used to assess relative ABCA1 protein levels in the presence and absence of synthetic peptides. Cells were grown in 10% fetal bovine serum, extensively rinsed, and incubated (18 h) with Dulbecco's modified Eagle's medium containing 0.1% bovine serum albumin plus the cAMP analog 8-bromo-cAMP. Cells were next exposed to synthetic peptides or serum-free medium in the absence of the cAMP stimulus to evaluate whether ABCA1 protein was stabilized or degraded. Relative levels of ABCA1 protein were assessed by immunoblot analysis of cell membranes (Oram, J. F. et al., J. Biol. Chem., 278:52379-52385 (2003)). ABCA1 was visualized using an enhanced chemiluminescence detection assay.
To assess ABCA1 stabilization, J774 macrophages were treated with a cAMP analog to up-regulate ABCA1 protein expression and then incubated for 6 h without cAMP. In the absence of inducer, ABCA1 protein is rapidly degraded in these cells (FIG. 9). […] Thus, it appears that the helical combinations that stimulate cholesterol efflux also stabilize the ABCA1 transporter.

ABCA1 [5] = target: T1, ABCA1; test: Cellular cholesterol efflux from [3H]cholesterol-labeled J774 macrophages with and without cAMP analog; format: cell-based; parameters: endogenous in cells; host or cells: J774 macrophages treated with a cAMP analog (CPT-cAMP or 8-bromo-cAMP); details: for concentration at which cholesterol efflux reached maximal levels: cAMP-treated J774 cells; for ABCA1-dependent cholesterol efflux (result in words): lipid-free acceptor, J774 macrophages with vs without cAMP analog
Excerpt: Suitable cholesterol efflux assays are described in, e.g., Bielicki, J. K and Oda, M. N., Biochemistry, 41:2089-2096 (2002); Jia, Z. et al., Biochem. Biophys. Res. Common., 297:206-213 (2002). In some embodiments, a polypeptide known to mediate cholesterol efflux (e.g., helix 9/10 of Apo A-I) is used to screen for additional mediators of cholesterol efflux in a cell based assay. For example, cell lines in which cholesterol efflux can be enhanced using a cAMP analog that up-regulates ABCA1 protein expression (e.g., J774 macrophages) can conveniently be used to assess the ability of an Apo A-I, Apo A-II, Apo A-IV, Apo E, Apo C-I, Apo C-II, Apo C-III, or Serum Amyloid A peptide to mediate cholesterol efflux. The cells are incubated with labeled cholesterol (e.g., [^3H]cholesterol) under conditions appropriate for cholesterol uptake by the cells. cAMP or cAMP analogs (e.g., CPT-cAMP) is incubated with the cells for a suitable time before the initiation of cellular cholesterol efflux, i.e., prior to contacting the cells with helix 9/10 of Apo A-I or the test compound. Measurement of labeled cholesterol appearing in the medium is used to determine the cholesterol efflux mediating activity of the test compound.
Cellular Cholesterol Efflux Protocol—J774 macrophages were used to assess the cholesterol efflux properties of synthetic amphipathic α-helical peptides (Bielicki, J. K and Oda, M. N., Biochemistry, 41:2089-2096 (2002); Jia, Z. et al., Biochem. Biophys. Res. Common., 297:206-213 (2002)). This cell line was chosen because cholesterol efflux can be enhanced using a cAMP analog that up-regulates ABCA1 protein expression. The cells were seeded onto 24-well culture plates and labeled for 48 h with [^3H]cholesterol in RPMI 1640 supplemented with 1% fetal bovine serum. The cAMP analog CPT-cAMP was added (0.3 mM, final concentration) to the cells at least 12 h before the initiation of cellular cholesterol efflux. Synthetic peptides in lipid-free form were added to cells in serum-free RPMI. The lipid-free form of full-length recombinant apoA-I was used as a positive control to define apparent ABCA1-dependent cholesterol efflux in the presence and absence of cAMP stimulation. Efflux results were expressed as a percentage of the initial cellular [^3H] appearing in the medium as a function of time subtracting the background efflux obtained using serum-free medium alone.

T1 sequence (P41233 whole entry): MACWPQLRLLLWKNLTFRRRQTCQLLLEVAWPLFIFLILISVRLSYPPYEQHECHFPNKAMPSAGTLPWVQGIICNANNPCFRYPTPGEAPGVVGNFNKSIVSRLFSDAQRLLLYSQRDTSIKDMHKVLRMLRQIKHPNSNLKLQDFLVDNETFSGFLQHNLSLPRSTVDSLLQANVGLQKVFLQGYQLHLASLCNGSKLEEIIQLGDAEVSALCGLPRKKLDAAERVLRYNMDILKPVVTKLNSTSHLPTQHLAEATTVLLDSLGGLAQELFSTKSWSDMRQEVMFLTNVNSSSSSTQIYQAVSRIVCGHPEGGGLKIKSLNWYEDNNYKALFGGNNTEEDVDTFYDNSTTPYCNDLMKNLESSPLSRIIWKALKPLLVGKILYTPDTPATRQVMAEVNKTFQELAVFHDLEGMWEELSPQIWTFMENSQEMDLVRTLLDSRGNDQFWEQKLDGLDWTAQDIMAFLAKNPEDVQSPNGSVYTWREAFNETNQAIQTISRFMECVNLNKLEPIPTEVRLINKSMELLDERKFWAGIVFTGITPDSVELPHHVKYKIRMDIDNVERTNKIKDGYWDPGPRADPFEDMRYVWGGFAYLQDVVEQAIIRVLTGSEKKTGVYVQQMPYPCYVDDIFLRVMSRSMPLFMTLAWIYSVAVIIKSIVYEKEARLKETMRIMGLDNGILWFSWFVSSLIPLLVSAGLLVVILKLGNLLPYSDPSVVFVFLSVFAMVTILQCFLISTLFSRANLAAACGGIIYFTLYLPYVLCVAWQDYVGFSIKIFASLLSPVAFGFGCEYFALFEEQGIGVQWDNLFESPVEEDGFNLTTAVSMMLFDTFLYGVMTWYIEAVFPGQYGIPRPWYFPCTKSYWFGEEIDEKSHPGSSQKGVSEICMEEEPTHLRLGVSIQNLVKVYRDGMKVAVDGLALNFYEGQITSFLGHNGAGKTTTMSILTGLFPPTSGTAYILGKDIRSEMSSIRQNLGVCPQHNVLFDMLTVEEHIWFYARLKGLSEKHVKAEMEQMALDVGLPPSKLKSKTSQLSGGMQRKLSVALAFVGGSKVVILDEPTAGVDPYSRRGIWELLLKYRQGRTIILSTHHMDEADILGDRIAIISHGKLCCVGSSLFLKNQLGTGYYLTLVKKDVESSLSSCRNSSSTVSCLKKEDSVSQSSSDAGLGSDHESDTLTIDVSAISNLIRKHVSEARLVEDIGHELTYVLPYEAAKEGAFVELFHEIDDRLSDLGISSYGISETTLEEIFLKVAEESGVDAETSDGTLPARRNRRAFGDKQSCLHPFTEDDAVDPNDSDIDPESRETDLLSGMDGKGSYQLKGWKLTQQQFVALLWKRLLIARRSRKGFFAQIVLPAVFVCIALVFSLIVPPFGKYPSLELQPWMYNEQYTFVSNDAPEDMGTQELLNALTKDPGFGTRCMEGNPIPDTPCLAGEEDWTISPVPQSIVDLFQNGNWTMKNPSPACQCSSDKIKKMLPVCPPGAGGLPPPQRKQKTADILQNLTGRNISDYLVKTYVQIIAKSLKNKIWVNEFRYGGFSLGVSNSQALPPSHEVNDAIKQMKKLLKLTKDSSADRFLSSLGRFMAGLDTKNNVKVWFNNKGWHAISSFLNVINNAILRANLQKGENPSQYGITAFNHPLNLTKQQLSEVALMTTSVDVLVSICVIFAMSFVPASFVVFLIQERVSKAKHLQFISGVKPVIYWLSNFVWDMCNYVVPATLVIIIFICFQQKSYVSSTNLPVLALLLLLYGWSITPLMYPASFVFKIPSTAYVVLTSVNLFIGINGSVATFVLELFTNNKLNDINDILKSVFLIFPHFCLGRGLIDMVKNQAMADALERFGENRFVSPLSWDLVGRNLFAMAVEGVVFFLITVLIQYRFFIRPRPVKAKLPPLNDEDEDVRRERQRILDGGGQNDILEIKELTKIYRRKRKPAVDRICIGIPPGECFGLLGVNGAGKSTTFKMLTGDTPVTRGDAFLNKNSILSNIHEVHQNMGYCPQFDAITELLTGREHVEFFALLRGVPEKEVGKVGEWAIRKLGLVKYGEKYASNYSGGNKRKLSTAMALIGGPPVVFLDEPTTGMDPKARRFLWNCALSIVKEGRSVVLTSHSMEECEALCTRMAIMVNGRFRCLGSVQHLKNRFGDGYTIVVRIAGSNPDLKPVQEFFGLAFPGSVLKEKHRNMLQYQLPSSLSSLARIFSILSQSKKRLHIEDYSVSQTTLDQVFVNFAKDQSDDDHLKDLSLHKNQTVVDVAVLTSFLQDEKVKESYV

Compound	DMPC clearance [1]	lipid binding affinity (surface balance technique), result in words [2]	Monolayer exclusion pressure [2] [dynes/cm]	lowest concentration that prevented ABCA1 degradation (ABCA1 [3]) [µg/mL]	ABCA1 stabilization (result in words) (ABCA1 [4])	concentration at which cholesterol efflux reached maximal levels (ABCA1 [5]) [µg/mL]	ABCA1-dependent cholesterol efflux (result in words) (ABCA1 [5])	potency in mediating ABCA1-dependent cholesterol efflux relative to the 1/9 chimera (ABCA1 [5]; FIGS. 2B versus 3C) [fold]	concentration giving maximal ABCA1 stabilization and cholesterol efflux (ABCA1 [5]; both ABCA1 stabilization and cholesterol efflux) [µg/mL]
CC(=O)N[C@@H](CC(C)C)C(=O)N[C@@H](CCCCN)C(=O)N[C@@H](CC(C)C)C(=O)N[C@@H](CC(C)C)C(=O)N[C@@H](CC(=O)O)C(=O)N[C@@H](CC(N)=O)C(=O)N[C@@H](Cc1c[nH]c2ccccc12)C(=O)N[C@@H](CC(=O)O)C(=O)N[C@@H](CO)C(=O)N[C@H](C(=O)N[C@H](C(=O)N[C@@H](CO)C(=O)N[C@H](C(=O)N[C@@H](Cc1ccccc1)C(=O)N[C@@H](CO)C(=O)N[C@@H](CCCCN)C(=O)N[C@@H](CC(C)C)C(=O)N[C@@H](CCCNC(=N)N)C(=O)N[C@@H](CCC(=O)O)C(=O)N[C@@H](CCC(N)=O)C(=O)N[C@@H](CC(C)C)C(=O)NCC(=O)N1CCC[C@H]1C(=O)N[C@@H](C)C(=O)N[C@@H](CC(C)C)C(=O)N[C@@H](CCC(=O)O)C(=O)N[C@@H](CC(=O)O)C(=O)N[C@@H](CC(C)C)C(=O)N[C@@H](CCCNC(=N)N)C(=O)N[C@@H](CCC(N)=O)C(=O)NCC(=O)N[C@@H](CC(C)C)C(=O)N[C@@H](CC(C)C)C(N)=O)[C@@H](C)O)[C@@H](C)O)C(C)C [Helical peptide 1/9] (Ac-LKLLDNWDSVTSTFSKLREQLGPALEDLRQGLL-NH2)	+	identical	31	10	stabilized cellular ABCA1 protein to levels comparable with those observed when cells were exposed continuously to cAMP	50	stimulated cholesterol efflux in the absence and presence of CAMP stimulation similar to full-length apoA-I	–	–
CC(=O)N1CCC[C@H]1C(=O)N[C@@H](C)C(=O)N[C@@H](CC(C)C)C(=O)N[C@@H](CCC(=O)O)C(=O)N[C@@H](CC(=O)O)C(=O)N[C@@H](CC(C)C)C(=O)N[C@@H](CCCNC(=N)N)C(=O)N[C@@H](CCC(N)=O)C(=O)NCC(=O)N[C@@H](CC(C)C)C(=O)N[C@@H](CC(C)C)C(=O)N1CCC[C@H]1C(=O)N[C@H](C(=O)N[C@@H](CC(C)C)C(=O)N[C@@H](CCC(=O)O)C(=O)N[C@@H](CO)C(=O)N[C@@H](Cc1ccccc1)C(=O)N[C@@H](CCCCN)C(=O)N[C@H](C(=O)N[C@@H](CO)C(=O)N[C@@H](Cc1ccccc1)C(=O)N[C@@H](CC(C)C)C(=O)N[C@@H](CO)C(=O)N[C@@H](C)C(=O)N[C@@H](CC(C)C)C(=O)N[C@@H](CCC(=O)O)C(=O)N[C@@H](CCC(=O)O)C(=O)N[C@@H](Cc1ccc(O)cc1)C(=O)N[C@H](C(=O)N[C@@H](CCCCN)C(=O)N[C@@H](CCCCN)C(=O)N[C@@H](CC(C)C)C(=O)N[C@@H](CC(N)=O)C(N)=O)[C@@H](C)O)C(C)C)C(C)C [Helical peptide 9/10] (Ac-PALEDLRQGLLPVLESFKVSFLSALEEYTKKLN-NH2)	+	–	36	10	stabilized cellular ABCA1 protein to levels comparable with those observed when cells were exposed continuously to cAMP	25	stimulated cholesterol efflux in an ABCA1-dependent manner	2	10 to 25
